Experimental data as given in US20040006070A1, “Intraspinal continuous infusion of midazolam hydrochloride for the treatment of pain” (priority 2002, published 2004).
Where a name gives a salt, the structure may show the parent alone.

Test: Bloodwork: complete blood count, electrolytes, extended blood chemistry
Format: in vivo, sheep
Procedure: Indirect blood pressure, pulse recording, pain testing (mechanical stimulus device, cold and warm water baths see description in procedure) and weight were taken on days 1, 3, 7, 15, 22, 29, 36, and 43. Venous blood samples (15 ml drawn from the jugular vein with Vacutainer brand blood collection tubes) for complete blood count, electrolytes, and extended blood chemistry were drawn on days 1, 15, and 43 (mild procedure only light hand restraint necessary).

[1] = sheep Elmer Fudd #437, 5 mg/day, Day 43
[2] = sheep Leghorn II #815, 15 mg/day, Baseline
[3] = sheep Leghorn II #815, 15 mg/day, Day 1
[4] = sheep Leghorn II #815, 15 mg/day, Day 15
[5] = sheep Leghorn II #815, 15 mg/day, Day 43
[6] = sheep Petunia #439, 15 mg/day, Baseline
[7] = sheep Petunia #439, 15 mg/day, Day 1
[8] = sheep Petunia #439, 15 mg/day, Day 15
[9] = sheep Petunia #439, 15 mg/day, Day 43
[10] = sheep Porky #402, 5 mg/day, Baseline
[11] = sheep Porky #402, 5 mg/day, Day 1
[12] = sheep Porky #402, 5 mg/day, Day 15
[13] = sheep Porky #402, 5 mg/day, Day 43

Cc1ncc2n1-c1ccc(Cl)cc1C(c1ccccc1F)=NC2 [Midazolam, midazolam hydrochloride]
CPK [1]: 64 U/L
Cholesterol [1]: 90 mg/dL
Creatinine [1]: 1.3 mg/dL
Differential Count: Atyp lym [1]: 0%
Differential Count: Bands [1]: 0%
Differential Count: Eosin [1]: 2%
Differential Count: Lymph [1]: 38%
Differential Count: Mono [1]: 1%
Differential Count: Seg [1]: 59%
Gamma GT [1]: 48 U/L
Glucose [1]: 83 mg/dL
Hct [1]: 34.6%
Hgb [1]: 11.8 g/dL
K+ [1]: 4.3 mEq/l
MCH [1]: 10.8 pg
MCHC [1]: 34.2 G/dl
MCV [1]: 31.7 fL
Na+ [1]: 147 mEq/l
Phos [1]: 6.2 mg/dL
Platlet Count [1]: 540000 µL⁻¹
RBC [1]: 1.09e+07 µL⁻¹
Total Bili [1]: 0.1 mg/dL
Total Prot [1]: 6.6 g/dL
WBC [1]: 4650 µL⁻¹
Differential Count: Atyp lym [2]: 0%
Differential Count: Baso [2]: 0%
Differential Count: Eosin [2]: 4%
Differential Count: Lymph [2]: 79%
Differential Count: Mono [2]: 3%
Differential Count: Seg [2]: 14%
Hct [2]: 36.9%
Hgb [2]: 12.5 g/dL
MCH [2]: 10.7 pg
MCHC [2]: 33.9 G/dl
MCV [2]: 31.5 fL
Platlet Count [2]: 516000 µL⁻¹
RBC [2]: 1.17e+07 µL⁻¹
WBC [2]: 6730 µL⁻¹
ALT [3]: 14 U/L
AST [3]: 117 U/L
Albumin [3]: 3.5 g/dL
Alk Phos [3]: 117 U/L
BUN [3]: 19 mg/dL
CPK [3]: 94 U/L
Cholesterol [3]: 68 mg/dL
Creatinine [3]: 0.9 mg/dL
Differential Count: Atyp lym [3]: 0%
Differential Count: Baso [3]: 0%
Differential Count: Eosin [3]: 2%
Differential Count: Lymph [3]: 58%
Differential Count: Mono [3]: 2%
Differential Count: Seg [3]: 28%
Gamma GT [3]: 80 U/L
Glucose [3]: 80 mg/dL
Hct [3]: 34.7%
Hgb [3]: 11.8 g/dL
K+ [3]: 5.0 mEq/l
MCH [3]: 10.6 pg
MCHC [3]: 34.0 G/dl
MCV [3]: 31.1 fL
Na+ [3]: 146 mEq/l
Phos [3]: 8.3 mg/dL
Platlet Count [3]: 828000 µL⁻¹
RBC [3]: 1.11e+07 µL⁻¹
Total Bili [3]: 0 mg/dL
Total Prot [3]: 6.3 g/dL
WBC [3]: 6070 µL⁻¹
Differential Count: Atyp lym [4]: 0%
Differential Count: Baso [4]: 0%
Differential Count: Eosin [4]: 16%
Differential Count: Lymph [4]: 59%
Differential Count: Mono [4]: 1%
Differential Count: Seg [4]: 24%
Hct [4]: 38.0%
Hgb [4]: 12.4 g/dL
MCH [4]: 10.4 pg
MCHC [4]: 32.7 G/dl
MCV [4]: 31.8 fL
Platlet Count [4]: 861000 µL⁻¹
RBC [4]: 1.2e+07 µL⁻¹
WBC [4]: 6640 µL⁻¹
Differential Count: Atyp lym [5]: 0%
Differential Count: Baso [5]: 1%
Differential Count: Eosin [5]: 2%
Differential Count: Lymph [5]: 77%
Differential Count: Mono [5]: 2%
Differential Count: Seg [5]: 18%
Hct [5]: 36.4%
Hgb [5]: 12.3 g/dL
MCH [5]: 10.5 pg
MCHC [5]: 33.7 G/dl
MCV [5]: 31.2 fL
Platlet Count [5]: 345000 µL⁻¹
RBC [5]: 1.17e+07 µL⁻¹
WBC [5]: 6110 µL⁻¹
Differential Count: Atyp lym [6]: 0%
Differential Count: Bands [6]: 0%
Differential Count: Eosin [6]: 130%
Differential Count: Lymph [6]: 53%
Differential Count: Mono [6]: 7%
Differential Count: Seg [6]: 27%
Hct [6]: 41.1%
Hgb [6]: 14.0 g/dL
MCH [6]: 11.5 pg
MCHC [6]: 34.2 G/dl
MCV [6]: 33.6 fL
Platlet Count [6]: 489000 µL⁻¹
RBC [6]: 1.22e+07 µL⁻¹
WBC [6]: 3120 µL⁻¹
ALT [7]: 0 U/L
AST [7]: 102 U/L
Albumin [7]: 3.6 g/dL
Alk Phos [7]: 43 U/L
BUN [7]: 10 mg/dL
CPK [7]: 84 U/L
Cholesterol [7]: 60 mg/dL
Creatinine [7]: 1.1 mg/dL
Differential Count: Atyp lym [7]: 2%
Differential Count: Bands [7]: 1%
Differential Count: Eosin [7]: 1%
Differential Count: Lymph [7]: 50%
Differential Count: Mono [7]: 6%
Differential Count: Seg [7]: 40%
Gamma GT [7]: 84 U/L
Glucose [7]: 71 mg/dL
Hct [7]: 42.4%
Hgb [7]: 14.4 g/dL
K+ [7]: 5.4 mEq/l
MCH [7]: 11.3 pg
MCHC [7]: 33.9 G/dl
MCV [7]: 33.3 fL
Na+ [7]: 152 mEq/l
Phos [7]: 7.9 mg/dL
RBC [7]: 1.27e+07 µL⁻¹
Total Bili [7]: 0 mg/dL
Total Prot [7]: 6.6 g/dL
WBC [7]: 2920 µL⁻¹
Platlet Count (sheep Petunia #439, 15 mg/day, Day 1, platelet clumps observed): 715• ×10^3/μl
ALT [8]: 1 U/L
AST [8]: 94 U/L
Albumin [8]: 4.0 g/dL
Alk Phos [8]: 29 U/L
BUN [8]: 14 mg/dL
CPK [8]: 105 U/L
Cholesterol [8]: 61 mg/dL
Creatinine [8]: 1.2 mg/dL
Differential Count: Atyp lym [8]: 1%
Differential Count: Bands [8]: 0%
Differential Count: Eosin [8]: 2%
Differential Count: Lymph [8]: 46%
Differential Count: Mono [8]: 3%
Differential Count: Seg [8]: 48%
Gamma GT [8]: 74 U/L
Glucose [8]: 93 mg/dL
Hct [8]: 30.8%
Hgb [8]: 10.1 g/dL
K+ [8]: 4.3 mEq/l
MCH [8]: 11.2 pg
MCHC [8]: 32.7 G/dl
MCV [8]: 34.2 fL
Na+ [8]: 150 mEq/l
Phos [8]: 4.9 mg/dL
RBC [8]: 9.02e+06 µL⁻¹
Total Bili [8]: 0.3 mg/dL
Total Prot [8]: 7.2 g/dL
WBC [8]: 3600 µL⁻¹
Platlet Count (sheep Petunia #439, 15 mg/day, Day 15, platelet clumps observed): 606• ×10^3/μl
ALT [9]: 0 U/L
AST [9]: 97 U/L
Albumin [9]: 3.6 g/dL
Alk Phos [9]: 49 U/L
BUN [9]: 17 mg/dL
CPK [9]: 91 U/L
Cholesterol [9]: 65 mg/dL
Creatinine [9]: 1.2 mg/dL
Differential Count: Atyp lym [9]: 1%
Differential Count: Bands [9]: 0%
Differential Count: Eosin [9]: 7%
Differential Count: Lymph [9]: 47%
Differential Count: Mono [9]: 4%
Differential Count: Seg [9]: 41%
Gamma GT [9]: 77 U/L
Glucose [9]: 68 mg/dL
Hct [9]: 36.0%
Hgb [9]: 11.8 g/dL
K+ [9]: 5.2 mEq/l
MCH [9]: 11.2 pg
MCHC [9]: 32.7 G/dl
MCV [9]: 34.1 fL
Na+ [9]: 146 mEq/l
Phos [9]: 6.2 mg/dL
Platlet Count [9]: 356000 µL⁻¹
RBC [9]: 1.05e+07 µL⁻¹
Total Bili [9]: 0.1 mg/dL
Total Prot [9]: 6.3 g/dL
WBC [9]: 2300 µL⁻¹
Differential Count: Atyp lym [10]: 0%
Differential Count: Bands [10]: 0%
Differential Count: Eosin [10]: 2%
Differential Count: Lymph [10]: 48%
Differential Count: Mono [10]: 2%
Differential Count: Seg [10]: 48%
Hct [10]: 40.7%
Hgb [10]: 13.5 g/dL
MCH [10]: 12.4 pg
MCHC [10]: 33.2 g/dL
MCV [10]: 37.2 fL
Platlet Count [10]: 215000 µL⁻¹
RBC [10]: 1.09e+07 µL⁻¹
WBC [10]: 3530 µL⁻¹
ALT [11]: 3 U/L
AST [11]: 67 U/L
Albumin [11]: 3.5 g/dL
Alk Phos [11]: 37 U/L
BUN [11]: 10 mg/dL
CPK [11]: 73 U/L
Cholesterol [11]: 71 mg/dL
Creatinine [11]: 1.3 mg/dL
Differential Count: Atyp lym [11]: 0%
Differential Count: Bands [11]: 0%
Differential Count: Eosin [11]: 1%
Differential Count: Lymph [11]: 41%
Differential Count: Mono [11]: 5%
Differential Count: Seg [11]: 53%
Gamma GT [11]: 46 U/L
Glucose [11]: 72 mg/dL
Hct [11]: 40.4%
Hgb [11]: 13.4 g/dL
K+ [11]: 4.6 mEq/l
MCH [11]: 12.3 pg
MCHC [11]: 33.1 g/dL
MCV [11]: 37.1 fL
Na+ [11]: 153 mEq/l
Phos [11]: 7.5 mg/dL
Platlet Count [11]: 319000 µL⁻¹
RBC [11]: 1.09e+07 µL⁻¹
Total Bili [11]: 0 mg/dL
Total Prot [11]: 6.8 g/dL
WBC [11]: 3470 µL⁻¹
ALT [12]: 8 U/L
AST [12]: 69 U/L
Albumin [12]: 3.9 g/dL
Alk Phos [12]: 33 U/L
BUN [12]: 14 mg/dL
CPK [12]: 94 U/L
Cholesterol [12]: 3.5 mg/dL
Creatinine [12]: 1.2 mg/dL
Differential Count: Atyp lym [12]: 0%
Differential Count: Bands [12]: 0%
Differential Count: Eosin [12]: 1%
Differential Count: Lymph [12]: 33%
Differential Count: Mono [12]: 5%
Differential Count: Seg [12]: 61%
Gamma GT [12]: 74 U/L
Glucose [12]: 89 mg/dL
Hct [12]: 31.4%
Hgb [12]: 10.2 g/dL
K+ [12]: 4.2 mEq/l
MCH [12]: 12.3 pg
MCHC [12]: 32.3 g/dL
MCV [12]: 38.2 fL
Na+ [12]: 150 mEq/l
Phos [12]: 48 mg/dL
Platlet Count [12]: 173000 µL⁻¹
RBC [12]: 8.23e+06 µL⁻¹
Total Bili [12]: 0.2 mg/dL
Total Prot [12]: 7.4 g/dL
WBC [12]: 3170 µL⁻¹
ALT [13]: 13 U/L
AST [13]: 59 U/L
Albumin [13]: 3.5 g/dL
Alk Phos [13]: 55 U/L
BUN [13]: 17 mg/dL
CPK [13]: 93 U/L
Cholesterol [13]: 62 mg/dL
Creatinine [13]: 1.3 mg/dL
Differential Count: Atyp lym [13]: 1%
Differential Count: Bands [13]: 0%
Differential Count: Eosin [13]: 5%
Differential Count: Lymph [13]: 40%
Differential Count: Mono [13]: 5%
Differential Count: Seg [13]: 49%
Gamma GT [13]: 42 U/L
Glucose [13]: 61 mg/dL
Hct [13]: 39.2%
Hgb [13]: 12.2 g/dL
K+ [13]: 4.8 mEq/l
MCH [13]: 12.0 pg
MCHC [13]: 31.8 g/dL
MCV [13]: 37.6 fL
Na+ [13]: 147 mEq/l
Phos [13]: 5.9 mg/dL
Platlet Count [13]: 214000 µL⁻¹
RBC [13]: 1.04e+07 µL⁻¹
Total Bili [13]: 0.1 mg/dL
Total Prot [13]: 6.4 g/dL
WBC [13]: 3590 µL⁻¹
